PubChem BioAssay AID264 (DTP/NCI, 2004)
Several values for one entry are separate records, joined by “and”; a condition that tells them apart may be missing. Equal entries are not always repeated. Results filed as inconclusive are left out.

Test system: nude mice, LX-1 lung xenograft intrarenal, tumor weight T/C
Test: NCI In Vivo Anticancer Drug Screen. Data for tumor model Human Lung LX-1 Xenograft (intrarenal inoculation) in NU/NU Swiss (nude) mice
Conditions: endpoint: mean tumor weight change, higher = larger tumour
How it was run: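 Antitumor effect is expressed as a ratio: the mean tumor measurement of the drug-treated group relative to that of the vehicle-dosed control group.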

[1] = dose: 300.0 mg/kg/injection, schedule: Q04DX003 (sc), vehicle: saline
[2] = dose: 300.0 mg/kg/injection, schedule: Q04DX003 (sc), vehicle: Klucel (hydroxypropylcellulose) (HPC)
[3] = dose: 600.0 mg/kg/injection, schedule: Q04DX003 (sc), vehicle: Klucel (hydroxypropylcellulose) (HPC)
[4] = dose: 6.25 mg/kg/injection, schedule: Q01DX010 (sc), vehicle: dextrose
[5] = dose: 12.5 mg/kg/injection, schedule: Q01DX010 (sc), vehicle: dextrose
[6] = dose: 25.0 mg/kg/injection, schedule: Q01DX010 (sc), vehicle: dextrose
[7] = dose: 150.0 mg/kg/injection, schedule: Q04DX003 (sc), vehicle: saline with Tween-80
[8] = dose: 600.0 mg/kg/injection, schedule: Q04DX003 (sc), vehicle: saline with Tween-80
[9] = dose: 1200.0 mg/kg/injection, schedule: Q04DX003 (sc), vehicle: saline with Tween-80
[10] = dose: 300.0 mg/kg/injection, schedule: Q04DX003 (sc), vehicle: saline with Tween-80

CN(N=O)C(=O)N[C@@H](C=O)[C@@H](O)[C@H](O)[C@H](O)CO
T/C (dose: 75.0 mg/kg/injection, schedule: Q04DX003 (sc), vehicle: other): 32 % of control
T/C (dose: 75.0 mg/kg/injection, schedule: Q04DX003 (sc), vehicle: saline): 39 % of control
T/C (dose: 150.0 mg/kg/injection, schedule: Q04DX003 (sc), vehicle: other): 10 % of control
T/C (dose: 150.0 mg/kg/injection, schedule: Q04DX003 (sc), vehicle: saline): 22 % of control
T/C [1]: -56 % of control

C(C#CCN1CCOCC1)#CCN1CCOCC1
T/C [2]: 124 % of control
T/C [3]: 76 % of control
T/C (dose: 1200.0 mg/kg/injection, schedule: Q04DX003 (sc), vehicle: Klucel (hydroxypropylcellulose) (HPC)): 84 % of control

CN(Cc1cnc2nc(N)nc(N)c2n1)c1ccc(C(=O)N[C@@H](CCC(=O)O)C(=O)O)cc1
T/C (dose: 0.5 mg/kg/injection, schedule: Q01DX010 (sc), vehicle: sodium bicarbonate): 74 % of control
T/C (dose: 1.0 mg/kg/injection, schedule: Q01DX010 (sc), vehicle: sodium bicarbonate): 87 % of control
T/C (dose: 2.0 mg/kg/injection, schedule: Q01DX010 (sc), vehicle: sodium bicarbonate): 18 % of control

Cc1ccc(S(=O)(=O)N/N=C/C(=O)O)cc1
T/C (dose: 12.5 mg/kg/injection, schedule: Q01DX010 (sc), vehicle: Klucel (hydroxypropylcellulose) (HPC)): 98 % of control
T/C (dose: 50.0 mg/kg/injection, schedule: Q01DX010 (sc), vehicle: Klucel (hydroxypropylcellulose) (HPC)): 37 % of control and 55 % of control
T/C (dose: 200.0 mg/kg/injection, schedule: Q01DX010 (sc), vehicle: Klucel (hydroxypropylcellulose) (HPC)): 45 % of control
T/C (dose: 400.0 mg/kg/injection, schedule: Q01DX010 (sc), vehicle: Klucel (hydroxypropylcellulose) (HPC)): 58 % of control

CC(C)[NH-].CC(C)[NH-].O.O.[Cl][Pt+2][Cl]
T/C (dose: 3.12 mg/kg/injection, schedule: Q01DX010 (sc), vehicle: dextrose): 62 % of control
T/C [4]: 60 % of control
T/C [5]: 53 % of control
T/C [6]: 64 % of control

O=C(Nc1ccccc1C(=O)O)c1cc([N+](=O)[O-])cc([N+](=O)[O-])c1
T/C (dose: 50.0 mg/kg/injection, schedule: Q04DX003 (sc), vehicle: saline with Tween-80): 86 % of control
T/C (dose: 100.0 mg/kg/injection, schedule: Q04DX003 (sc), vehicle: saline with Tween-80): 86 % of control
T/C (dose: 200.0 mg/kg/injection, schedule: Q04DX003 (sc), vehicle: saline with Tween-80): 100 % of control
T/C (dose: 400.0 mg/kg/injection, schedule: Q04DX003 (sc), vehicle: saline with Tween-80): 64 % of control

COc1cc(NCc2ccc3nc(N)nc(N)c3c2C)cc(OC)c1OC
T/C (dose: 1.25 mg/kg/injection, schedule: Q01DX010 (sc), vehicle: sodium bicarbonate): 76 % of control
T/C (dose: 2.5 mg/kg/injection, schedule: Q01DX010 (sc), vehicle: sodium bicarbonate): 81 % of control
T/C (dose: 5.0 mg/kg/injection, schedule: Q01DX010 (sc), vehicle: sodium bicarbonate): 36 % of control
T/C (dose: 75.0 mg/kg/injection, schedule: Q04DX003 (sc), vehicle: water): 77 % of control
T/C (dose: 150.0 mg/kg/injection, schedule: Q04DX003 (sc), vehicle: water): 67 % of control

CSC(SC)=C1C(=O)NC(=O)NC1=O
T/C (dose: 150.0 mg/kg/injection, schedule: Q04DX003 (sc), vehicle: suspension in saline): 68 % of control
T/C (dose: 300.0 mg/kg/injection, schedule: Q04DX003 (sc), vehicle: suspension in saline): 102 % of control
T/C (dose: 600.0 mg/kg/injection, schedule: Q04DX003 (sc), vehicle: suspension in saline): 42 % of control

C(COCCOCC1CO1)OCCOCC1CO1 (stereo not drawn)
T/C (dose: 100.0 mg/kg/injection, schedule: Q01DX010 (sc), vehicle: saline): 108 % of control
T/C (dose: 200.0 mg/kg/injection, schedule: Q01DX010 (sc), vehicle: saline): 93 % of control
T/C (dose: 400.0 mg/kg/injection, schedule: Q01DX010 (sc), vehicle: saline): 46 % of control

OCCOCC(F)(F)F
T/C [1]: 78 % of control
T/C (dose: 600.0 mg/kg/injection, schedule: Q04DX003 (sc), vehicle: saline): 95 % of control

ClCCCN1CCCCC1CCl (stereo not drawn)
T/C (dose: 12.5 mg/kg/injection, schedule: Q04DX003 (sc), vehicle: saline): 88 % of control
T/C (dose: 25.0 mg/kg/injection, schedule: Q04DX003 (sc), vehicle: saline): 71 % of control

Oc1cc2c3c(c1)c1cc4c(cc1c[n+]3CC2)OCO4
T/C (dose: 25.0 mg/kg/injection, schedule: Q04DX003 (sc), vehicle: water): 102 % of control
T/C (dose: 50.0 mg/kg/injection, schedule: Q04DX003 (sc), vehicle: water): 124 % of control
T/C (dose: 100.0 mg/kg/injection, schedule: Q04DX003 (sc), vehicle: water): 93 % of control
T/C (dose: 200.0 mg/kg/injection, schedule: Q04DX003 (sc), vehicle: water): 103 % of control

CC(=S)NC(O)C(=O)c1ccccc1 (stereo not drawn)
T/C [7]: 109 % of control
T/C [8]: 63 % of control
T/C [9]: 99 % of control

O=C(Nc1nncs1)c1ccncc1
T/C (dose: 50.0 mg/kg/injection, schedule: Q01DX010 (sc), vehicle: saline with Tween-80): 115 % of control
T/C (dose: 100.0 mg/kg/injection, schedule: Q01DX010 (sc), vehicle: saline with Tween-80): 91 % of control

NCCc1cc(O)c(O)c(O)c1
T/C (dose: 100.0 mg/kg/injection, schedule: Q04DX003 (sc), vehicle: saline): 83 % of control
T/C (dose: 200.0 mg/kg/injection, schedule: Q04DX003 (sc), vehicle: saline): 96 % of control
T/C (dose: 800.0 mg/kg/injection, schedule: Q04DX003 (sc), vehicle: saline): 91 % of control

Cc1ccc(NCCN(C)C)c2c(=O)c3cc(O)ccc3sc12
T/C (dose: 75.0 mg/kg/injection, schedule: Q04DX003 (sc), vehicle: Klucel (hydroxypropylcellulose) (HPC)): 97 % of control
T/C (dose: 150.0 mg/kg/injection, schedule: Q04DX003 (sc), vehicle: Klucel (hydroxypropylcellulose) (HPC)): 68 % of control
T/C [2]: 72 % of control
T/C [3]: 84 % of control

COC1CC(C)C(OC)c2cc(O)cc(c2O)NC(=O)/C(C)=C/C=C\C(C)C(OC(N)=O)/C(C)=C\C(C)C1OC (stereo not drawn)
T/C (dose: 25.0 mg/kg/injection, schedule: Q04DX003 (sc), vehicle: saline + alcohol): 86 % of control
T/C (dose: 50.0 mg/kg/injection, schedule: Q04DX003 (sc), vehicle: saline + alcohol): 93 % of control
T/C (dose: 100.0 mg/kg/injection, schedule: Q04DX003 (sc), vehicle: saline + alcohol): 82 % of control

COc1cc(Cc2nccc3cc(OC)c(OC)cc23)c(C(C)=O)c(OC)c1
T/C (dose: 40.0 mg/kg/injection, schedule: Q01DX010 (sc), vehicle: saline): 78 % of control
T/C (dose: 80.0 mg/kg/injection, schedule: Q01DX010 (sc), vehicle: saline): 57 % of control
T/C (dose: 160.0 mg/kg/injection, schedule: Q01DX010 (sc), vehicle: saline): 67 % of control

O=C(O)C1(C(=O)O)CCC1.[NH2-].[NH2-].[Pt+2]
T/C [4]: 73 % of control
T/C [5]: 88 % of control
T/C [6]: 68 % of control

O=C1N[C@@H]2C(=C[C@H](O)[C@@H](O)[C@H]2O)c2cc3c(c(O)c21)OCO3
T/C (dose: 2.5 mg/kg/injection, schedule: Q04DX003 (sc), vehicle: saline with Tween-80): 97 % of control
T/C (dose: 5.0 mg/kg/injection, schedule: Q04DX003 (sc), vehicle: saline with Tween-80): 109 % of control

C[CH2][Ge]([CH2]C)[CH2]C.C[CH2][Ge]([CH2]C)[CH2]C.C[CH2][Ge]([CH2]C)[O][Ge]([CH2]C)[CH2]C
T/C (dose: 75.0 mg/kg/injection, schedule: Q04DX003 (sc), vehicle: saline with Tween-80): 91 % of control
T/C [7]: 98 % of control
T/C [10]: 63 % of control
T/C [8]: 114 % of control

N=C(N)SCc1c2ccccc2c(CSC(=N)N)c2ccccc12
T/C (dose: 100.0 mg/kg/injection, schedule: Q04DX003 (sc), vehicle: suspension in saline): 104 % of control
T/C (dose: 400.0 mg/kg/injection, schedule: Q04DX003 (sc), vehicle: suspension in saline): 93 % of control
T/C (dose: 800.0 mg/kg/injection, schedule: Q04DX003 (sc), vehicle: suspension in saline): 96 % of control

C[Si](C)(C)OSc1ccccc1[N+](=O)[O-]
T/C [2]: 150 % of control
T/C [3]: 151 % of control
T/C (dose: 2400.0 mg/kg/injection, schedule: Q04DX003 (sc), vehicle: Klucel (hydroxypropylcellulose) (HPC)): 123 % of control

CC(Cc1ccc(O)cc1)NCC(O)c1ccc(O)c(O)c1 (stereo not drawn)
T/C [10]: 62 % of control
T/C [8]: 98 % of control
T/C [9]: 61 % of control
